Data from patent US20260078130A1, “NAMPT MODULATORS, PREPARATIONS, AND USES THEREOF” (SIRONAX LTD., priority 2022, published 2026).

Key:
[1] = target: T1, human enzyme NAMPT (full length) (Homo sapiens, UniProt P43490); test: NMN fluorescence biochemical assay (stimulation of NMN synthesis by NAMPT); settings: for EC50: NMN synthesis by purified human NAMPT (100 nM), concentration giving half-maximal activation, read-out: Enzymatic EC50; for Enzymatic Emax: fold change of maximal activation compared to DMSO
T1 construct: human enzyme NAMPT (full length)
T1 sequence (P43490 whole entry): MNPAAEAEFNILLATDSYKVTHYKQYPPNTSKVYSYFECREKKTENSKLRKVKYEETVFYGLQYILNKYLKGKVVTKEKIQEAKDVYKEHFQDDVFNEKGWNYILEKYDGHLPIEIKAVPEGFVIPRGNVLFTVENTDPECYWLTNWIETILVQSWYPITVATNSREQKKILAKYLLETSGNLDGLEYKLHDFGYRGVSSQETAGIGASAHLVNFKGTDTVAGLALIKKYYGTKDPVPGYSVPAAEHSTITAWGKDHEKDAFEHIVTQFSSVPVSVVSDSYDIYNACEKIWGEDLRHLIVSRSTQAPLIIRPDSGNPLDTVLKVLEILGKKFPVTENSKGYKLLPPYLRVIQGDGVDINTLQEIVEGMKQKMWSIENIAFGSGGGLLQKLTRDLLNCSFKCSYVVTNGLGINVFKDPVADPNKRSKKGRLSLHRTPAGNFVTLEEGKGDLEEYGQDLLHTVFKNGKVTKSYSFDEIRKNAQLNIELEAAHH
Summary of the method: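 Full-length human NAMPT (100 nM) was preincubated 15 min at 37 °C with compound in 50 mM Tris-HCl pH 7.5, 10 mM MgCl2, 2 mM DTT, then reacted 1 h at 37 °C with 50 μM NAM, 100 μM PRPP, 4 mM ATP (stated solution concentrations). NMN was derivatised with acetophenone/KOH then formic acid and read at Ex/Em 382/445 nm; EC50 and Emax (fold over DMSO) reported.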

[2] = tested on: endogenous NAMPT in U2OS cells; test: Cellular NAD+ modulation assay (NAD/NADH-Glo, U2OS cells); assay type: cell-based; settings: Homo sapiens, 24 hours incubation with compound; for maximal fold induction: read-out: Cellular Emax
Experimental: Certain compounds described herein were also assayed for their ability to stimulate the endogenous NAMPT in a native cellular environment in a cellular NAD^+ modulation assay. U2OS cells were grown in McCoy's 5A medium with 10% fetal bovine serum, in a humidified incubator with an atmosphere of 95% air and 5% CO2 at 37° C. The assays were initiated by plating 30 μL of U2OS cells in a culture medium with 10% fetal bovine serum, at a density of 3000 cells per well in a Corning® 384-well White/Clear Bottom Polystyrene Microplate. The plates were incubated in 37T incubators for a period of 16 hours. Test compounds with a series of concentrations in DMSO were added to the plates in a volume of 150 nL using Echo Liquid handlers. The plates are then incubated for 24 hours. The medium was removed from the wells, then 10 μL PBS was added to each well. To each well of cells in 10 μL of PBS, 10 μL of base solution with 1% DTAB was added. The plate was briefly mixed on a plate shaker to ensure homogeneity and cell lysis (5 mins). 10p L of 0.4N HCl was added per well. The plate was coved, and all samples were incubated for 15 minutes at 60° C. Then the plate was equilibrated for 10 minutes at room temperature. 10 μL of 0.5M Trizma® base was added to each well of acid-treated cells to neutralize the acid. Finally, 30 μL of NAD/NADH-Glo™ Detection Reagent was added. The plate was gently shaken to mix the samples. The plate was incubated for 40 minutes at room temperature. Luminescence was recorded using a luminometer. The potency measurements for the test compounds were quantified and represented as EC50 (concentration of a compound that gives half-maximal activation) and Emax (fold change of a compound's maximal activation compared to DMSO).

| Structure (SMILES) | EC50 [1] [µM] | Enzymatic Emax [1] | EC50 [2] [µM] | maximal fold induction [2] |
| --- | --- | --- | --- | --- |
| O=C1c2cc(Br)ccc2CN1Cc1ccc(O)cc1 [Compound 19, 6-bromo-2-(4-hydroxybenzyl) isoindolin-1-one] | ≥ 5 | A (A>3) | 0.5 to 5 | 1.2 to 1.5 |
| O=C1c2ccc(Br)cc2CN1Cc1ccc(O)cc1 [Compound 20, 5-bromo-2-(4-hydroxybenzyl) isoindolin-1-one] | 0.5 to 5 | A (A>3) | 0.5 to 5 | > 1.5 |
| O=C1c2cccc(Br)c2CN1Cc1ccc(O)cc1 [Compound 21, 4-bromo-2-(4-hydroxybenzyl) isoindolin-1-one] | 0.5 to 5 | B (3≥B>2) | 5 to 50 | 1.2 to 1.5 |
| Cn1c2ccccc2c(=O)n1Cc1ccc(O)cc1 [Compound 23, 2-(4-hydroxybenzyl)-1-methyl-1,2-dihydro-3H-indazol-3-one] | ≥ 5 | A (A>3) | 0.5 to 5 | > 1.5 |
| CCCn1c2ccccc2c(=O)n1Cc1ccc(O)cc1 [Compound 25, 2-(4-hydroxybenzyl)-1-propyl-1,2-dihydro-3H-indazol-3-one] | ≥ 5 | A (A>3) | 5 to 50 | > 1.5 |
| CC(C)c1ccc2c(c1)C(=O)N(Cc1ccc(O)cc1)C2=O [Compound 26, 2-(4-hydroxybenzyl)-5-isopropylisoindoline-1,3-dione] | 0.5 to 5 | A (A>3) | < 0.5 | ≤ 1.2 |
| N#CCC1c2ccccc2C(=O)N1Cc1ccc(O)cc1 (stereo not drawn) [Compound 27, 2-(2-(4-hydroxybenzyl)-3-oxoisoindolin-1-yl)acetonitrile] | ≥ 5 | A (A>3) | 5 to 50 | > 1.5 |
| O=C1c2c(Br)cccc2CN1Cc1ccc(O)cc1 [Compound 29, 7-bromo-2-(4-hydroxybenzyl)isoindolin-1-one] | 0.5 to 5 | A (A>3) | 5 to 50 | > 1.5 |
| CC1c2ccccc2C(=O)N1Cc1ccc(O)cc1 (stereo not drawn) [Compound 31, 2-(4-hydroxybenzyl)-3-methylisoindolin-1-one] | 0.5 to 5 | A (A>3) | 0.5 to 5 | > 1.5 |
| O=C1c2ccccc2CN1Cc1ccc2[nH]c(=O)oc2c1 [Compound 33, 6-((1-oxoisoindolin-2-yl)methyl)benzo[d]oxazol-2(3H)-one] | ≥ 5 | A (A>3) | 5 to 50 | 1.2 to 1.5 |
| Cc1cccc2c1CN(Cc1ccc(O)cc1)C2=O [Compound 34, 2-(4-hydroxybenzyl)-4-methylisoindolin-1-one] | 0.5 to 5 | B (3≥B>2) | 0.5 to 5 | 1.2 to 1.5 |
| COc1ccc2c(c1)CN(Cc1ccc(O)cc1)C2=O [Compound 35, 2-(4-hydroxybenzyl)-5-methoxyisoindolin-1-one] | 0.5 to 5 | A (A>3) | 0.5 to 5 | 1.2 to 1.5 |
| O=C1c2ccc(N3CCCC3)cc2C(=O)N1Cc1ccc(O)cc1 [Compound 36, 2-(4-hydroxybenzyl)-5-(pyrrolidin-1-yl)isoindoline-1,3-dione] | 0.5 to 5 | A (A>3) | 0.5 to 5 | 1.2 to 1.5 |
| Cc1ccc2c(c1)C(=O)N(Cc1ccc3[nH]nnc3c1)C2=O [Compound 37, 2-((1H-benzo[d][1,2,3]triazol-5-yl)methyl)-5-methylisoindoline-1,3-dione] | ≥ 5 | A (A>3) | 0.5 to 5 | ≤ 1.2 |
| NC(=O)c1ccc2c(c1)C(=O)N(Cc1ccc(O)cc1)C2=O [Compound 38, 2-(4-hydroxybenzyl)-1,3-dioxoisoindoline-5-carboxamide] | ≥ 5 | A (A>3) | 5 to 50 | ≤ 1.2 |
| O=C1c2cccnc2CN1Cc1ccc(O)cc1 [Compound 39, 6-(4-hydroxybenzyl)-6,7-dihydro-5H-pyrrolo[3,4-b]pyridin-5-one] | ≥ 5 | B (3≥B>2) | 5 to 50 | 1.2 to 1.5 |
| O=C1c2ncccc2CN1Cc1ccc(O)cc1 [Compound 40, 6-(4-hydroxybenzyl)-5,6-dihydro-7H-pyrrolo[3,4-b]pyridin-7-one] | ≥ 5 | B (3≥B>2) | 5 to 50 | 1.2 to 1.5 |
| CCc1ccc2c(c1)C(=O)N(Cc1ccc(O)cc1)C2=O [Compound 41, 5-ethyl-2-(4-hydroxybenzyl)isoindoline-1,3-dione] | 0.5 to 5 | A (A>3) | 0.5 to 5 | 1.2 to 1.5 |
| O=C1c2cnccc2CN1Cc1ccc(O)cc1 [Compound 42, 2-(4-hydroxybenzyl)-1,2-dihydro-3H-pyrrolo[3,4-c]pyridin-3-one] | ≥ 5 | A (A>3) | 5 to 50 | > 1.5 |
| O=C1c2ccncc2CN1Cc1ccc(O)cc1 [Compound 43, 2-(4-hydroxybenzyl)-2,3-dihydro-1H-pyrrolo[3,4-c]pyridin-1-one] | ≥ 5 | A (A>3) | 5 to 50 | 1.2 to 1.5 |
| CC1c2ccccc2C(=O)N1Cc1ccc2[nH]nnc2c1 (stereo not drawn) [Compound 44, 2-((1H-benzo[d][1,2,3]triazol-5-yl)methyl)-3-methylisoindolin-1-one] | ≥ 5 | B (3≥B>2) | 5 to 50 | 1.2 to 1.5 |
| CC(c1ccc(O)cc1)N1Cc2ccccc2C1=O (stereo not drawn) [Compound 45, 2-(1-(4-hydroxyphenyl)ethyl) isoindolin-1-one] | ≥ 5 | B (3≥B>2) | 0.5 to 5 | 1.2 to 1.5 |
| Cn1c2ccccc2c(=O)n1Cc1ccc2[nH]c(=O)oc2c1 [Compound 46, 6-((1-methyl-3-oxo-1,3-dihydro-2H-indazol-2-yl)methyl)benzo[d]oxazol-2(3H)-one] | ≥ 5 | B (3≥B>2) | 5 to 50 | > 1.5 |
| O=C1c2ccc(N3CCOCC3)cc2CN1Cc1ccc2[nH]c(=O)oc2c1 [Compound 47, 6-((5-morpholino-1-oxoisoindolin-2-yl)methyl)benzo[d]oxazol-2(3H)-one] | ≥ 5 | B (3≥B>2) | 5 to 50 | > 1.5 |
| Cc1ccc2c(c1)CN(Cc1ccc3[nH]c(=O)oc3c1)C2=O [Compound 48, 6-((5-methyl-1-oxoisoindolin-2-yl)methyl)benzo[d]oxazol-2(3H)-one] | ≥ 5 | B (3≥B>2) | 0.5 to 5 | > 1.5 |
| COc1ccc2c(c1)CN(Cc1ccc3[nH]c(=O)oc3c1)C2=O [Compound 49, 6-((5-methoxy-1-oxoisoindolin-2-yl)methyl)benzo[d]oxazol-2(3H)-one] | ≥ 5 | B (3≥B>2) | 5 to 50 | > 1.5 |
| CC1(C)c2ccccc2C(=O)N1Cc1ccc2[nH]c(=O)oc2c1 [Compound 52, 6-((1,1-dimethyl-3-oxoisoindolin-2-yl)methyl) benzo[d]oxazol-2(3H)-one] | ≥ 5 | B (3≥B>2) | 0.5 to 5 | > 1.5 |
| CCC1c2ccccc2C(=O)N1Cc1ccc2[nH]c(=O)oc2c1 (stereo not drawn) [Compound 53, 6-((1-ethyl-3-oxoisoindolin-2-yl)methyl) benzo[d]oxazol-2(3H)-one] | ≥ 5 | B (3≥B>2) | 5 to 50 | 1.2 to 1.5 |
| CC1c2ccccc2C(=O)N1Cc1ccc2[nH]c(=O)oc2c1 (stereo not drawn) [Compound 54, 6-((1-methyl-3-oxoisoindolin-2-yl)methyl)benzo[d]oxazol-2(3H)-one] | ≥ 5 | A (A>3) | 0.5 to 5 | > 1.5 |
| C[C@@H]1c2ccccc2C(=O)N1Cc1ccc2[nH]c(=O)oc2c1 [Compound 55, (R)-6-((1-methyl-3-oxoisoindolin-2-yl)methyl)benzo[d]oxazol-2(3H)-one] | ≥ 5 | B (3≥B>2) | 5 to 50 | 1.2 to 1.5 |
